# According to patent US7091351B2, “Vanadium compounds for treating cancer” (Parker Hughes Institute, priority 1998, dated 2006):
# Tested on: Ntera-2 testicular cancer cells
# Assay: Flow cytometric TUNEL apoptosis assay, NTERA-2 cells
# Type: cell-based, human
# Conditions: 24 h, TUNEL-positive nuclei
# Procedure: A flow cytometric two-color terminal […] transferase (TdT)-mediated digoxigenin-uridine triphosphate (dUTP) nick-end labeling assay (TUNEL) was employed to detect apoptotic nuclei. Gavrieli, Y., Sherman, Y., Ben-Sasson, S. A. Identification of programmed cell death in situ via specific labeling of nuclear DNA fragmentation. J. Cell Biol., 119: 493–501, 1992. Exponentially growing cells (10^6/ml) were incubated in DMSO alone (0.1%) or treated with 100 μM each of the 16 vanadocenes (VDB, VDC, VMDC, VDI, VDA, VDCN, VDOCN, VDSCN, VDSeCN, VDT, VDCO, VDFe, VD(acac), VDH, VD(dpy), and VD(dtc) in 0.1% DMSO for 24 h. Cells were washed in PBS, fixed in 4% paraformaldehyde in PBS for 15 min on ice. Following two washings in PBS, they were permeabilized with 0.1% Triton X-100 in 0.1% sodium citrate for 2 min on ice, and washed twice in PBS. Labeling of exposed 3′-hydroxyl (3′-OH) ends of fragmented nuclear DNA was performed using TdT and fluorescein isothiocyanate (FITC)-conjugated dUTP according to the manufacturer's recommendations (Boehringer Mannheim, Indianapolis, Ind.). Cells were counterstained with 5 μg/ml PI. Control samples included: (i) untreated cells; (ii) cells incubated with the reaction mixture without the TdT enzyme. Cells were analyzed with a FACS Calibur flow cytometer (Becton Dickinson, Mountain View, Calif.). Relative DNA content (PI) was detected with band-pass filter 585/42, and dUTP incorporation (FITC) was detected with band-pass filter 530/30. Fluorescence was compensated for in the acquisition software using single-label control samples. Data were acquired in listmode, gated to 10,000 events per sample, and analyzed with the use of CELLQuest software program (Becton Dickinson). […] Vanadocene-induced apoptosis is shown by an increase in the number of cells staining with FITC-dUTP. The M1 and M2 gates were used to demarcate non-apoptotic and apoptotic PI-counterstained cell populations, respectively. TUNEL assays were performed using two testicular cell lines Tera-2 and Ntera-2 following exposure to each of the 16 vanadocenes. In other experiments, MC540 binding (as an early marker of apoptosis) and PI permeability (as a marker of advanced stage apoptosis) were simultaneously measured in human cancer cells 24 hours after exposure to vanadocenes, as previously described. Uckun, F. M., Narla, R. K., Jun, X., Zeren, T., Venkatachalam, T., Waddick, K. G., Rostostev, A., Myers, D. E. Cytotoxic activity of EGF-genstein against breast cancer cells. Clin. Cancer Res. 4:901–912, 1998. Vassilev, A., Ozer, Z., Navara, C., Mahajan, S., and Uckun, F. M. Bruton's tyrosine kinase as an inhibitor of the Fas/CD95 death-inducing signaling complex. J. Biol. Chem. 274:1646–56, 1999. Whole cells were analyzed using a FACStar Plus flow cytometer (Becton Dickinson, San Jose, Calif.). All analyses were done using 488 nm excitation from an argon laser. MC540 and PI emissions were split with a 600 nm short pass dichroic mirror and a 575 nm band pass filter was placed in front of one photomultiplier tube to measure MC540 emission and a 635 nm band pass filter was used for PI emission.
smiles,measurement,value
"[Cl-].[Cl-].[V+4].c1cc[cH-]c1.c1cc[cH-]c1 [VDC, VCp2Cl2]",% Apoptosis at 100 μM NTERA-2,"35 (34, 34) %"
